Measurements published in patent US4845095A, “4-phenylpiperidine compounds and their use” (A/S Ferrosan, priority 1987, dated 1989).

Tested on: acetic acid induced writhing syndrome
Test: acetic acid induced writhing syndrome in mice
Type: in vivo, mice (NMRI)
Details: for ED50: Mus musculus, sc, dose giving 50 per cent protection against writhings, s.c. 30 minutes before acetic acid 0.5 per cent i.p., writhings counted 5-15 minutes after; for inhibition (ED50 table): s.c. 30 minutes before acetic acid
Protocol: The pharmaceutical properties of the compounds of the invention can be illustrated by determining their capability to antagonize the acetic acid induced writhing syndrome in mice.
In mice i.p. injection of acetic acid induces a writhing syndrome which is antagonized by analgesics (Siegmund et al., Proc. Soc. exp. Biol. 95, 729-731 (1957); Eckhardt et al., Proc. Soc. exp. Biol. 98, 186-188 (1958).
Test procedure: Acetic acid 0.5 per cent is injected i.p. (0.15 ml/10g body weight) to 6 mice (NMRI, either sex weighing 20-25 g) pretreated with physiological saline (controls) and to 6 mice pretreated with test substance. In the controls acetic acid induces a syndrome characterized by contraction of abdomen, turning of trunk and extension of hind limbs. Saline and test substances are administered s.c. 30 minutes before acetic acid. The number of writhings is counted 5-15 minutes after injection of acetic acid. The activity is expressed as per cent protection=
(Control drug)/Control×100
The effect of active substances is evaluated by a dose response curve, log dose on the abscissa, and per cent protection on the ordinate. The potency is expressed as the dose (ED50) in mg/kg giving 50 per cent protection against writhings. Test results obtained by testing some compounds of the invention will appear from the following table.

Row | SMILES | ED50 | other results
1 | Cc1noc(C2(c3ccccc3)CCN(C)CC2)n1.Cl [Compound 1, 1-Methyl-4-(3-methyl-1,2,4-oxadiazol-5-yl)-4-phenylpiperidine hydrochloride] | 5.7 mg/kg | 
2 | CN1CCC(c2ccccc2)(c2nc(C3CC3)no2)CC1.Cl [Compound 2, 1-methyl-4-(3-cyclopropyl-1,2,4-oxadiazol-5-yl)-4-phenylpiperidine hydrochloride] | 7.6 mg/kg | 
3 | CN1CCC(c2ccccc2)(c2nc(-c3ccccc3)no2)CC1 [Compound 3, 1-methyl-4-(3-phenyl-1,2,4-oxadiazol-5-yl)-4-phenylpiperidine] |  | inhibition (ED50 table) (at 3 (table head mg/kg)): 41%
4 | COCc1noc(C2(c3ccccc3)CCN(C)CC2)n1.Cl [Compound 4, 1-methyl-4-(3-methoxymethyl-1,2,4-oxadiazol-5-yl)-4-phenylpiperidine hydrochloride] | 3 mg/kg | 
5 | CON=CC1(c2ccccc2)CCN(C)CC1.O=C(O)C(=O)O [Compound 10, 4-Methoxyiminomethyl-1-methyl-4-phenyl-piperidine oxalate] | 3.2 mg/kg | 
6 | c1ccc(C2(c3nc(C4CC4)no3)CCNCC2)cc1 [Compound 13, 4-(3-cyclopropyl-1,2,4-oxadiazol-5-yl)-4-phenylpiperidine] | 2.9 mg/kg | 
7 | O=C(O)C(=O)O.c1ccc(OCCCCN2CCC(c3ccccc3)(c3nc(C4CC4)no3)CC2)cc1 [Compound 16, 4-(3-cyclopropyl-1,2,4-oxadiazol-5-yl)-1-(4-phenoxybutyl)-4-phenylpiperidine oxalate] |  | inhibition (ED50 table) (at 10 (table head mg/kg)): 34%
8 | CCOC(=O)C1(c2ccccc2)CCN(C)CC1 [Pethidine, reference compound] | 9.25 mg/kg | 
